Data as given in ChEMBL document CHEMBL4373639, “How mithramycin stereochemistry dictates its structure and DNA binding function” (Medchemcomm, 2019).

Experiment: Binding affinity to dsDNA oligomer GAGGCCTC (unknown origin) assessed as binding constant incubated for 16 hrs in presence of […] by fluorescence based assay

Row | Kd [nM] | Compound
1 | 1600 | COC(=O)[C@H](Cc1ccccc1)NC(=O)[C@@H](OC)[C@@H]1Cc2cc3cc(O[C@H]4C[C@@H](O[C@H]5C[C@@H](O)[C@H](O)[C@@H](C)O5)[C@H](O)[C@@H](C)O4)c(C)c(O)c3c(O)c2C(=O)[C@H]1O[C@H]1C[C@@H](O[C@H]2C[C@@H](O[C@H]3C[C@](C)(O)[C@H](O)[C@@H](C)O3)[C@H](O)[C@@H](C)O2)[C@H](O)[C@@H](C)O1
2 | < 1000 | CO[C@H](C(=O)[C@@H](O)[C@@H](C)O)[C@@H]1Cc2cc3cc(O[C@H]4C[C@@H](O[C@H]5C[C@@H](O)[C@H](O)[C@@H](C)O5)[C@H](O)[C@@H](C)O4)c(C)c(O)c3c(O)c2C(=O)[C@H]1O[C@H]1C[C@@H](O[C@H]2C[C@@H](O[C@H]3C[C@](C)(O)[C@H](O)[C@@H](C)O3)[C@H](O)[C@@H](C)O2)[C@H](O)[C@@H](C)O1
